{
  "source": "patent US20080300298A1",
  "about": "“Honokiol Derivates For the Treatment of Proliferative Disorders” (priority 2005, published 2008)",
  "test_system": "human multiple myeloma (MM) cell lines",
  "test": "colorimetric (WST-8) growth assay",
  "format": "cell-based",
  "settings": "for IC50: Homo sapiens",
  "excerpt": "Cells: Dexamethasone (Dex)-sensitive MM.1S (wild-type p53) and Dex-resistant MM.1R, RPMI 8226-Dox40 (doxorubicin resistant) and RPMI 8226-LR5 (melphalan resistant) human multiple myeloma (MM) cell lines were used. RPMI-8226 and U266 cells were obtained from the American Type Culture Collection (Rockville, Md.). SU-DHL-4 cells were also utilized. Fresh peripheral blood mononuclear cells (PBMNCs) were obtained from healthy subjects after informed consent. The PBMNC were separated from heparinized peripheral blood by Ficoll-Hipaque density sedimentation. BM specimens were acquired from patients with MM after obtaining informed consent and mononuclear cells were separated by Ficoll-Hipaque density sedimentation. Cells were cultured at 37° C. in RPMI 1640 containing 10% fetal bovine serum (FBS; Sigma, St Louis, Mo.), […], 100 U/mL penicillin, and 100 μg/mL streptomycin (Gibco, Grand Island, N.Y.).\nReagents: Honokiol (HNK; Calbiochem, San Diego, Calif.) was dissolved in ethanol at 20 mg/ml stock solution. Recombinant human interleukin-6 (IL-6), vascular endothelial growth factor (VEGF) and insulin-like growth factor-1 (IGF-1) (R&D Systems, Minneapolis, Minn.) were reconstituted with sterile PBS containing 0.1% FBS (IL-6 and VEGF) and 10 mM of acetic acid containing 0.1% FBS (IGF-1), respectively. Pan-caspase inhibitor z-VAD-fmk (Bachem, Bubendorf, Switzerland) was dissolved in methanol. These reagents were stored at −20° C. and diluted by media just before the use. Doxorubicin (Sigma, St Louis, Mo.) was dissolved in sterile water at the concentration of 3.45 mM. […] Absorbance readings at a wavelength of 450 nm were taken on a spectrophotometer (Molecular Devices Corp., Sunnyvale, Calif.).\nHNK inhibits growth of MM cell lines. To identify the therapeutic potential of HNK, MM cell lines and normal PBMNCs were cultured at indicated concentration with HNK for 48 h, and growth was determined by calorimetric assays. […] FIGS. 6A and B show growth inhibition in MM cell lines by HNK as assessed by calorimetric assay after 48 h-culture. […]",
  "note": "Where two headings read alike, the source gives them in different places.",
  "data": [
    {"smiles": "C=CCc1ccc(O)c(-c2ccc(O)c(CC=C)c2)c1", "note": "[HNK, Honokiol]", "values": [
      {"measurement": "IC50", "setting": "drug sensitive RPM18226, U266 and MM.1S cells, 48 h, read-out: fifty percent inhibition (IC50) at 48 h", "value": "8 to 10", "unit": "µg/mL"},
      {"measurement": "IC50", "setting": "including Melphalan-, Doxorubicin- and Dex-resistant cell lines, read-out: IC50 of growth inhibition of MM cell lines", "value": "< 10", "unit": "µg/mL"},
      {"measurement": "growth of drug resistant cell lines", "setting": "RPM18226-Dox40, RPM18226-LR5 and MM.1R cells, 48 h", "value": "IC50 values similar to parental drug-sensitive cell lines"}
    ]}
  ]
}
